Source: article PMC11540844, “Enhancing transcription–replication conflict targets ecDNA-positive cancers” (Nature, 2024)
Like-named read-outs stand apart in the source and are kept apart here. Blank lines part the entries; values can stand above or below the compound they belong to.

Experiments:
COLO320DM cells = assay: Cell viability / CTG proliferation (CellTiter-Glo); type: cell-based, human; conditions: for IC50: Homo sapiens, COLO 320DM
Method: (§1) Cell viability assay was performed using CellTiter-Glo (Promega, catalgoue no. G8461) as previously described. Briefly, cells were seeded into a 384-well plate one day before adding inhibitors. Equal volumes of vehicles or drugs diluted at indicated concentration were added into each well the next day, and the cells were incubated for three days. On the third day, after equilibrating plate and CellTiter-Glo reagent at room temperature for 30 min, reagent was added into each well and incubated for 15 min at room temperature. Luminescence was measured using a Synergy 2 microplate reader. Four biological replicates were performed for each condition. Data analysis was performed with GraphPad Prism (v.9.1.0).

COLO320HSR cells = assay: Cell viability / CTG proliferation (CellTiter-Glo); type: cell-based, human; conditions: Homo sapiens, COLO-320-HSR; Extended Data Fig. 8
Method: as §1

SNU16 cells = assay: Cell viability (CellTiter-Glo); type: cell-based, human; conditions: Homo sapiens, SNU-16; Extended Data Fig. 8; read-out: IC50 SNU16
Method: as §1, with “(v.9.1.0). […]” for “(v.9.1.0).”

GBM39ec cells = assay: Cell viability (CellTiter-Glo); type: cell-based, human; conditions: Homo sapiens; Extended Data Fig. 8
Method: as §1

GBM39HSR cells = assay: Cell viability (CellTiter-Glo); type: cell-based, human; conditions: Homo sapiens; Extended Data Fig. 8
Method: as §1

pCHK1-S345 in HT29 cells = assay: AlphaLISA SureFire Ultra p-CHK1 (Ser345) assay in HT29 cells; type: cell-based; conditions: Homo sapiens, HT-29, 16 h, read-out: CHK1 cellular potency AlphaLisa (IC50)
Method: Compound activity in cells was measured using an AlphaLISA SureFire Ultra p-CHK1 (Ser345) assay (Perkin Elmer, catalogue no. ALSU-PCHK1-A10K). HT29 cells were cultured in McCoy 5 A medium with 10% FBS and 1% penicillin-streptomycin and seeded to 96-well plates (Corning, catalogue no. 3599). Compounds were serially diluted in DMSO over a 10-point dose range with 3-fold dilution, and compound solution was added to each well containing cells. Plates were centrifuged at 1,000 rpm for 30 s. Plates were incubated at 37 °C for 16 h. Supernatant was removed by flicking the plate against a paper towel. Wells were washed once with PBS solution. To each well was added freshly prepared lysis buffer and plates were agitated on a plate shaker at 400 rpm for 30 min. The 96-well cell plates were centrifuged at 1,500 rpm for 1 min. From each well was transferred 10 µl of the lysates to a 384-well Optiplate (Perkin Elmer, catalogue no. 6007290). To each well was added Acceptor Mix (5 µl) and the plates were sealed and wrapped in foil. Plates were agitated on a plate shaker for 2 min, then incubated at room temperature for 1 h. To each well was added Donor Mix (5 µl) and the plates were sealed and wrapped in foil. Plates were agitated on a plate shaker for 2 min, then incubated at room temperature for 1 h. AlphaLisa signal was read on an EnVision multimode plate reader (Perkin Elmer). […]

[1] = test system: γH2AX in COLO320DM and COLO320HSR cells; assay: γH2AX IF combined with EdU labelling; type: cell-based, human; conditions: XL413 combined with CHIR-124
Method: (§2) Coverslips were coated with 100 µg ml^−^1 poly-L-lysine overnight or 10 µg ml^−^1 laminin for 1 h at 37 °C before seeding cells. Asynchronized cells were seeded onto slides and subject to different treatment. Where indicated, EdU was added to each well at 10 µg ml^−^1 30 min before collecting samples. IF and dual-IF DNA FISH staining were performed as described before. Briefly, slides were fixed with ice-cold 4% paraformaldehyde (PFA) for 15 min, followed by permeabilization with 0.5% Triton X-100 in PBS for 15 min at room temperature. Samples were blocked with 3% BSA in PBS for 1 h at room temperature before incubation with primary antibody diluted in blocking buffer at 4 °C overnight. Dilution ratio for first antibodies was as follows: γH2Ax, 1:500; pRPA2-S33, 1:1,000; pCHK1S345, 1:250; 53BP1, 1:500; cyclin A, 1:100; pRNAPII S2/S4, 1:1,000. […]
(§3) Image analysis and quantification were performed using the open-source software CellProfiler (v.4.2.1). For foci number analysis, DAPI staining, IF staining and DNA FISH channel were analysed through automatic thresholding and segmentation to cell nuclei, pRPA2S33/γH2AX foci and DNA FISH foci respectively. […] For fluorescence intensity measurement, nuclei were called based on DAPI channel through automatic thresholding and segmentation; mean fluorescence intensity was retrieved by measuring mean fluorescence intensity within each nucleus.

[2] = test system: ssDNA on ecDNA amplicon in COLO320DM and COLO320HSR cells; assay: KAS-seq (ssDNA mapping); type: cell-based, human; conditions: triptolide treatment
Method: KAS-seq experiments were carried out as previously described[12] with modifications. Briefly, cell culture media was supplemented with 5 mM N3-kethoxal (final concentration), and cells were incubated for 10 min at 37 °C in a six-well plate. Genomic DNA was then extracted using the Monarch gDNA Purification Kit (NEB T3010S) following the standard protocol but with elution using 50 µl 25 mM K3BO3 at pH 7.0. Click reaction was carried out by mixing 87.5 µl purified DNA, 2.5 µl 20 mM DBCO-PEG4-biotin (dimethylsulfoxide (DMSO) solution, Sigma, catalogue no. 760749) and 10 µl 10× PBS in a final volume of 100 µl. The reaction was then incubated at 37 °C for 90 min. DNA was purified using AMPure XP beads by adding 50 µl beads per 100 µl reaction, washing beads on a magnetic stand twice with 80% EtOH and eluting in 130 µl 25 mM K3BO3. Purified DNA was then sheared using a Covaris E220 instrument down to around 200–400 bp size. […]
Libraries were sequenced in a paired-end format on an Illumina NextSeq instrument using NextSeq 550 High-Output Kits (2 × 36 cycles). […] Duplicate reads were removed using picard-tools (v.1.99). […]

[3] = test system: RS on HSR in GBM39HSR cells; assay: pRPA2-S33 IF combined with EGFR FISH; type: cell-based, human
Method: as §2, §3

[4] = test system: RS on ecDNA in GBM39ec cells; assay: pRPA2-S33 IF combined with EGFR FISH; type: cell-based, human
Method: as §2, §3

[5] = test system: pRPA2-S33 foci in COLO320HSR cells; assay: pRPA2-S33 IF (replication stress); type: cell-based, human
Method: as §2, §3

[6] = test system: pRPA2-S33 foci in COLO320DM cells; assay: pRPA2-S33 IF (replication stress); type: cell-based, human
Method: as §2, §3

[7] = test system: pRNAPII S2/S4 in COLO320DM and COLO320HSR cells; assay: Active RNA polymerase II IF; type: cell-based, human; conditions: triptolide treatment
Method: as §2, §3

[8] = Extended Data Fig. 8, read-out: IC50 COLO320DM

SMILES: COc1cc2nc(-c3cc(F)ccc3O)nc(N[C@@H]3CNC[C@H]3C(C)(C)O)c2cc1OC [CCT241533]
differential inhibitory effect between ecDNA+ and ecDNA− isogenic cell lines (COLO320DM cells; COLO320DM vs COLO320HSR viability, Extended Data Fig. 8a): no differential inhibitory effect
IC50 (COLO320DM cells; [8]): 3740 nM
IC50 (COLO320HSR cells): 4.89 µM

IC50 (SNU16 cells): 8.48 nM
IC50 (COLO320DM cells; [8]): 34.1 nM
IC50 (COLO320HSR cells): 0.0781 µM
SMILES: COc1cccc(OCCCN)c1-c1cc(Nc2cnc(C#N)cn2)n[nH]1 [Ly2606368]
IC50 (GBM39ec cells): 48.8 nM
IC50 (GBM39HSR cells): 66.1 nM

IC50 (pCHK1-S345 in HT29 cells): 1500 nM
IC50 (COLO320DM cells; COLO320DM cells, read-out: CTG proliferation ecDNA+ (IC50)): 1010 nM
IC50 (COLO320DM cells; [8]): 1110 nM
IC50 (COLO320HSR cells): 24.7 µM
SMILES: N#Cc1cnc(Nc2cc(NC[C@H]3CNCCO3)c(C(F)(F)F)cn2)cn1 [SRA737]

SMILES: O=c1[nH]c(C2CCCN2)nc2c1oc1ccc(Cl)cc12 (stereo not shown) [XL413]
effect on DNA damage induced by CHK1i (γH2AX IF) [1]: partially blocked

SMILES: CC(C)[C@]12O[C@H]1[C@@H]1O[C@]13[C@]1(O[C@H]1C[C@H]1C4=C(CC[C@@]13C)C(=O)OC4)[C@@H]2O [triptolide]
ssDNA signals across the ecDNA amplicon (KAS-seq) [2]: drastic reduction
RS on HSR (pRPA2-S33 IF and EGFR FISH) [3]: no obvious difference
RS on ecDNA (pRPA2-S33 IF and EGFR FISH) [4]: significantly decreased
pRPA2-S33 foci [5]: negligible effect
pRPA2-S33 foci [6]: significantly decreased
transcriptional activity (active RNA polymerase II by IF) [7]: significantly decreased
